Measured values published in patent US11858993B2, “Multi-specific antibodies with affinity for human A33 antigen and DOTA metal complex and uses thereof” (Memorial Sloan Kettering Cancer Center, priority 2015, dated 2024).
“And” between values parts separate entries of the source, which are not always exact repeats. Identical values can stand only once.

Test system: A33-positive SW1222 xenografts
Assay: Dual-cycle PRIT therapy study
Details: for Complete Response / Cures at 40 d post-treatment / absorbed radiation dose, Blood / absorbed radiation dose, Kidney / absorbed radiation dose, Tumor: Dual-cycle
[1] = dual-cycle PRIT, 66.6 or 111 MBq ^177Lu-DOTA-Bn pooled
[2] = two cycles of PRIT+55.5 (total 111.0 MBq)

Description: In a second therapy study, dual-cycle huA33-C825 PRIT treatment was investigated.
The following definitions were used to describe treatment response: a complete response (CR) is defined as tumor shrinkage to <100 mm^3. […] Excessive tumor burden is defined as >2000 mm^3.

## huA33-C825: bispecific antibody: humanized A33 IgG1 with murine C825 anti-DOTA-Bn scFv linked to the light chain C-terminus
+ 11.1 MBq (×2), 22.2 MBq
  Complete Response: 2/5
  Cures at 40 d post-treatment: 1/5
  absorbed radiation dose, Blood: 0.2 Gy
  absorbed radiation dose, Kidney: 1.2 Gy
  absorbed radiation dose, Tumor: 14.6 Gy
+ 33.3 MBq (×2), 66.6 MBq
  Complete Response: 5/5
  Cures at 40 d post-treatment: 2/5
  absorbed radiation dose, Blood: 0.6 Gy
  absorbed radiation dose, Kidney: 3.5 Gy
  absorbed radiation dose, Tumor: 43.8 Gy
+ 55.5 MBq (×2), 111.0 MBq
  Complete Response: 4/4
  Cures at 40 d post-treatment: 2/4
  absorbed radiation dose, Blood: 1.0 Gy
  absorbed radiation dose, Kidney: 5.9 Gy
  absorbed radiation dose, Tumor: 73.0 Gy
[1]
  alive without recurrence at more than 140 d: 2/9
  complete responses: 9/9
dual-cycle dosing
  complete response, share of test subjects: approximately 80%
[2]
  time to reach 500 mm^3 in recurrent tumors (individual mice): 34 days and 45 days and 42 days
  tumor size at time of sacrifice (single mouse): 44 mm^3
